In patent publication US20030194738A1, “Antisense oligonucleotide compositions and methods for the modulation of activating protein 1” (priority 1997, published 2003):
Several values for one entry are separate records, joined by “and”; a condition that tells them apart may be missing. Identical values can stand only once. Entries after “also recorded” stand apart in the source; their conditions may differ. Strand notation (5' to 3'): a small letter for the sugar, then the base; units joined by * are phosphorothioate-linked, units joined directly phosphodiester-linked; [ ] holds rarer units or linkages, { } end groups; capitals alone tell only the bases. d = 2'-deoxy (DNA)

Tests used:
c-jun mRNA = c-jun mRNA expression in TPA-induced A549 cells, Northern blotting; assay type: cell-based, human; settings: for effect on c-jun mRNA levels during TPA induction (in words) / c-jun (mRNA level, specificity experiment) / c-jun mRNA LEVELS (% CONTROL): A549 cells; for c-jun (mRNA level, specificity experiment): Table 5, TPA - no oligo = 100, basal = 23; for c-jun mRNA LEVELS (% CONTROL): TPA induction, 1 hour
Description: In order to evaluate the activity of potential c-fos and c-jun modulating oligonucleotides, A549 cells were grown in T-75 flasks until 80-90% confluent. (Cell line A549 is available from, inter alia, the American Type Culture Collection, Rockville, Md., as ATCC No. CCL-185.) At this time, the cells were washed twice with 10 mL of media (DMEM), followed by the addition of 5 mL of DMEM containing 20 μg/mL of LIPOFECTIN™ (i.e., DOTMA/DOPE (N-[1-(2,3-dioleyloxy)propyl]-N,N,N-[…] chloride/dioleoylphosphatidyl ethanolamine)). […] After 4 hours at 37° C., the medium was replaced with DMEM containing 10% serum. At this point, 1 μM 12-O-tetradecanoylphorbol 13-acetate (TPA) was added to induce expression of c-fos and c-jun. Cells were extracted in guanidinium one hour later, and the c-fos and c-jun mRNA expression was determined by Northern blotting. Probes for human c-jun and c-fos were PCR products prepared using primers based on the published sequences thereof (respectively, Hattori et al., Proc. Natl. Acad. Sci. U.S.A., 1988, 85:9148, and Van Straaten et al., Proc. Natl. Acad. Sci. U.S.A., 1983, 80:3183).

c-Fos protein = c-Fos protein levels in TPA-induced A549 cells, immunoblot; assay type: cell-based, human; settings: TPA (1 uM) for three hours; for c-Fos (protein level): Table 7, TPA - no oligo = 100, basal = 21
Description: The ability of the c-fos active oligonucleotide ISIS 10639 to reduce expression of the c-Fos protein was examined as follows. A549 cells were treated with oligonucleotides as in Examples 2-3, except that induction of c-Fos was effected by treatment of cells with TPA (1 uM) for three hours. At this time, whole cell protein was extracted in SDS (sodium dodecyl sulfate) buffer. Samples of extracts were electrophoresed, transferred to nitrocellulose filters which were immunoblotted using a c-Fos-specific antibody (Santa Cruz AB, Santa Cruz, Calif.).

c-fos mRNA [1] = test: c-fos mRNA expression in TPA-induced A549 cells, Northern blotting; assay type: cell-based, human; settings: TPA induction, 1 hour
A549 tumors = test: Growth of A549 tumor fragments implanted subcutaneously in nude mice; assay type: in vivo; settings: 25 mg/kg daily i.v. for three weeks; for Mean Tumor Weight: nude mice
Description: In order to evaluate the in vivo activity of c-fos oligonucleotides, 25 mg of tumor fragments of A549 tumors were implanted subcutaneously in nude mice (n=6). ISIS 10639 was administered daily, i.v., for three weeks. The oligonucleotide dosage was 25 mg/kg. […] By day 34, saline-treated tumors were 0.56±0.12 g by weight, while tumors treated with ISIS 10639 were 0.31±0.1 g by weight.

c-fos mRNA [2] = test: c-fos mRNA expression in TPA-induced A549 cells, Northern blotting; assay type: cell-based, human; settings: for c-fos (mRNA level, specificity experiment): Table 5, TPA - no oligo = 100, basal = 5
Description: In order to evaluate the activity of potential c-fos and c-jun modulating oligonucleotides, A549 cells were grown in T-75 flasks until 80-90% confluent. (Cell line A549 is available from, inter alia, the American Type Culture Collection, Rockville, Md., as ATCC No. CCL-185.) At this time, the cells were washed twice with 10 mL of media (DMEM), followed by the addition of 5 mL of DMEM containing 20 μg/mL of LIPOFECTIN™ (i.e., DOTMA/DOPE (N-[1-(2,3-dioleyloxy)propyl]-N,N,N-[…] chloride/dioleoylphosphatidyl ethanolamine)). The oligonucleotides were added from a 10 μM stock solution to a final concentration of 400 nM, and the two solutions were mixed by swirling the flasks. After 4 hours at 37° C., the medium was replaced with DMEM containing 10% serum. At this point, 1 μM 12-O-tetradecanoylphorbol 13-acetate (TPA) was added to induce expression of c-fos and c-jun. Cells were extracted in guanidinium one hour later, and the c-fos and c-jun mRNA expression was determined by Northern blotting. Probes for human c-jun and c-fos were PCR products prepared using primers based on the published sequences thereof (respectively, Hattori et al., Proc. Natl. Acad. Sci. U.S.A., 1988, 85:9148, and Van Straaten et al., Proc. Natl. Acad. Sci. U.S.A., 1983, 80:3183).
Finally, it can also be seen from Table 5 that neither active oligonucleotide has any detectable effect on mRNA levels of the other active oligonucleotide's target.
Once oligonucleotides that modulate c-Fos or c-Jun are identified, derivative or modified oligonucleotides having the same sequence thereas are prepared. In order to evaluate the effect of chemical modifications to oligonucleotides to c-fos and c-jun, the modified oligonucleotides described in Tables 8 and 9 were prepared. The effect of the c-fos-targeted oligonucleotides on c-fos RNA levels were evaluated as described in Examples 2-3. […] Other modified oligonucleotides of the invention are evaluated in like fashion. In order to evaluate the effect of PNA antisense analogs, the PNA analogs of the invention are introduced into appropriate cell lines by microinjection according to the method of Hanvey et al. (Science, 1992, 258:1481). Intracellular delivery of PNA analogs is confirmed by the use of a fluorescently tagged PNA antisense analog conjugate such as, e.g., ISIS 14240.

c-Jun = test: Induction of c-Jun by TNF-a, IL-1b or TGF-b in A549 cells; assay type: cell-based, human; settings: for c-Jun induction by IL-1b: inducer IL-1b 10 ng/ml, No Oligo = 100, basal = 9; for c-Jun induction by TGF-b: inducer TGF-b 10 ng/ml, No Oligo = 100, basal = 2; for c-Jun induction by TNF-a: inducer TNF-a 10 ng/ml, No Oligo = 100, basal = 5
Description: Inducing agents other than TPA function to raise AP-1 levels in vivo. In order to assess the ability of oligonucleotides targeted to AP-1 to antagonize the action of three such inducers, A549 cells were treated and evaluated as in Examples 2 et seq. with the exception that TNF-a, IL-1b or TGE-b (each at 10 ng/mi and all from R&D Systems, Minneapolis, Minn.) were used in place of TPA as inducers.

MMP-9 = MMP-9 expression in TPA-induced normal human epidermal keratinocytes; assay type: cell-based; settings: for MMP-9 (expression): Table 17, NHEK cells harvested 24 hours after TPA treatment for 4 hours, TPA - no oligo = 100, basal = 4
From the text: The matrix metalloproteinases (MMPs) are a family of enzymes which have the ability to degrade components of the extracellular matrix (Birkedal-Hansen, Current Op. Biol., 1995, 7, 728). […] In particular, one member of this family, matrix metalloproteinase-9 (MMP-9), is often found to be expressed only in tumors and other diseased tissues (Himeistein et al., Invasion & Metastasis, 1994, 14, 246). Several studies have shown that regulation of the MMP-9 gene may be controlled by the AP-1 transcription factor (Kerr et al., Science, 1988, 242, 1242; Kerr et al., Cell, 1990, 61, 267; Gum et al., J. Biol. Chem., 1996, 271, 10672; Hua et al., Cancer Res., 1996, 56, 5279). In order to determine whether MMP-9 expression can be influenced by AP-1 modulation, the following experiments were conducted on normal human epidermal keratinocytes (NHEKs). Although NHEKs normally express no detectable MMP-9, MMP-9 can be induced by a number of stimuli, including TPA. ISIS 10582, an oligonucleotide targeted to c-jun, was evaluated for its ability to modulate MMP-9 expression according to the protocols described in Examples 2-3 with the following exceptions: (1) NHEK cells were used instead of A549 cells, (2) the probe used, a PCR product prepared using the published sequence of the MMP-9 gene (Huhtala et al., J. Biol. Chem., 1991, 266:16485; Sato et al., Oncogene, 1993, 8:395), is specific for MMP-9 rather than c-jun, and (3) the cells were harvested 24 hours after TPA treatment for 4 hours.

[3] = 400 nM oligonucleotide with LIPOFECTIN, control is TPA induction, at 1 hour, in A549 cells
[4] = 400 nM oligonucleotide, TPA-induced A549 cells

| Substance | effect on c-jun mRNA levels during TPA induction (in words) (c-jun mRNA) | c-jun (mRNA level, specificity experiment) (c-jun mRNA) | c-Fos (protein level) (c-Fos protein) | effect on c-fos mRNA levels during TPA induction (in words) (c-fos mRNA [2]; A549 cells) | c-fos (mRNA level, specificity experiment) (c-fos mRNA [2]; A549 cells) | MMP-9 (expression) (MMP-9) | also measured |
| --- | --- | --- | --- | --- | --- | --- | --- |
| AAG-TCC-TTG-AGG-CCC-ACA-GC (AAGTCCTTGAGGCCCACAGC; antisense; all phosphorothioate, sugars by position and methylation of C not given here) [ISIS 10639] | no detectable effect | 97 | 19 | dose-dependent; also recorded: potent and specific inhibition | 9 |  | c-Fos protein level (in words) (c-Fos protein; A549 cells): basal levels; c-fos mRNA LEVELS (% CONTROL) (c-fos mRNA [1]; 50 nM oligonucleotide): 64 % CONTROL; c-fos mRNA LEVELS (% CONTROL) (c-fos mRNA [1]; 100 nM oligonucleotide): 46 % CONTROL; c-fos mRNA LEVELS (% CONTROL) (c-fos mRNA [1]; 200 nM oligonucleotide): 20.5 % CONTROL; tumor growth rate (in words) (A549 tumors; versus saline): substantial reduction; Mean Tumor Weight (A549 tumors; Day 17): 0.105 g; Mean Tumor Weight (A549 tumors; Day 20): 0.138 g; Mean Tumor Weight (A549 tumors; Day 27): 0.225 g; Mean Tumor Weight (A549 tumors; Day 34, 25 mg/kg): 0.31 ± 0.1 g and 0.310 g; c-fos mRNA % CONTROL (c-fos mRNA [2]; [3]): 9 % CONTROL; inhibition of c-fos mRNA expression (c-fos mRNA [2]; [4]): 91%; c-fos mRNA LEVELS (% CONTROL) (c-fos mRNA [2]; 400 nM oligonucleotide, TPA induction, 1 hour, A549 cells): 9 % CONTROL; c-fos (expression, modified oligonucleotides) (c-fos mRNA [2]; Table 10, TPA - no oligo = 100, basal = 3, A549 cells): 9 |
| ACG-TCC-GAT-TCC-GAG-CGC-AA (ACGTCCGATTCCGAGCGCAA; antisense; DNA, all phosphorothioate, methylation of C not given here) [ISIS 11186] |  | 99 | 99 | no detectable effect | 98 |  |  |
| ATG-TGC-TAG-ATG-CGC-AAA-GT (ATGTGCTAGATGCGCAAAGT; antisense; DNA, all phosphorothioate, methylation of C not given here) [ISIS 11185] |  | 98 | 91 | no detectable effect | 93 |  |  |
| CAC-CTC-CAC-GCG-CTT-CTG-GC (dC*dA*dC*dC*dT*dC*dC*dA*dC*dG*dC*dG*dC*dT*dT*dC*dT*dG*dG*dC; antisense) [ISIS 11563] |  |  |  |  | 99 | 95 | stimulation / induction of c-Jun by TNF-a or IL-1b (in words) (c-Jun): did not reverse; c-Jun induction by IL-1b (c-Jun): 94; c-Jun induction by TGF-b (c-Jun): 99; c-Jun induction by TNF-a (c-Jun): 98 |
| GAG-AGA-CCG-TCG-GGC-GCT-GA (GAGAGACCGTCGGGGGCTGA; listed as DNA, chemistry not given here) [ISIS 11562] |  |  |  |  | 89 | 99 |  |
| GCT-GTG-GGC-CTC-AAG-GAC-TT (GCTGTGGGCCTCAAGGACTT; antisense; DNA, all phosphorothioate, methylation of C not given here) [ISIS 11184] |  | 91 | 97 | no detectable effect | 84 |  |  |
| TCA-GCC-CCC-GAC-GGT-CTC-TC (dT*dC*dA*dG*dC*dC*dC*dC*dC*dG*dA*dC*dG*dG*dT*dC*dT*dC*dT*dC; antisense) [ISIS 10582] | dose-dependent; also recorded: potent and specific inhibition | 4 |  | no detectable effect | 91 | 6 | c-jun mRNA LEVELS (% CONTROL) (c-jun mRNA; 50 nM oligonucleotide): 72 % CONTROL; c-jun mRNA LEVELS (% CONTROL) (c-jun mRNA; 100 nM oligonucleotide): 45.5 % CONTROL; c-jun mRNA LEVELS (% CONTROL) (c-jun mRNA; 200 nM oligonucleotide): 29.5 % CONTROL; c-jun mRNA % CONTROL (c-jun mRNA; [3]): 17 % CONTROL; inhibition of c-jun mRNA expression (c-jun mRNA; [4]): 83%; c-jun mRNA LEVELS (% CONTROL) (c-jun mRNA; 400 nM oligonucleotide): 16 % CONTROL; stimulation / induction of c-Jun by TNF-a or IL-1b (in words) (c-Jun): effectively reduces; c-Jun induction by IL-1b (c-Jun): 15; c-Jun induction by TGF-b (c-Jun): 95; c-Jun induction by TNF-a (c-Jun): 20; expression of MMP-9 after induction with TPA (in words) (MMP-9; NHEK cells): completely inhibit |
| TCG-GCA-CCT-GAA-GGA-CTT-TC (dT*dC*dG*dG*dC*dA*dC*dC*dT*dG*dA*dA*dG*dG*dA*dC*dT*dT*dT*dC; antisense) [ISIS 11564] | no detectable effect | 71 |  |  | 99 | 89 |  |
